Test results as given in ChEMBL document CHEMBL1149729, “A bioassay for inhibition of serotonin release from bovine platelets” (J Nat Prod, 1992).
Structures can show the parent of a compound that is named as a salt.

How the values were obtained:
[1] = Antimigraine activity in bovine citreated platelet assessed as inhibition of [14C]serotonin release after 6 mins by scintillation counting; type: functional, cell-based; conditions: Bos taurus, 0.1 h
[2] = Antimigraine activity in human citreated platelet assessed as inhibition of [14C]serotonin release after 6 mins by scintillation counting; type: functional, cell-based; conditions: 0.1 h
[3] = Antimigraine activity in ADP-stimulated bovine citreated platelet assessed as inhibition of [14C]serotonin release at 100 uM after 6 mins by scintillation counting; type: functional; conditions: Bos taurus, 0.1 h

IC50 [1] [µM] | IC50 [2] [µM] | SMILES | inhibition at 100 µM [3] [%]
> 516 | – | C=C1C(=O)O[C@@H]2C[C@@]3(C)CCCC(=C)[C@@H]3C[C@H]12 [ISOALANTOLACTONE] | –
578 | 770 | COc1ccc(CCN(C)CCCC(C#N)(c2ccc(OC)c(OC)c2)C(C)C)cc1OC (stereo not given) [VERAPAMIL HYDROCHLORIDE] | –
– | 5.64 | C=C1C(=O)O[C@@H]2C3O[C@]3(C)CC/C=C(\C)CC[C@@H]12 (stereo not given in full) | 20.3
